Experimental data as given in patent US20220396565A1 (Hoffmann-La Roche Inc., priority 2020, published 2022).
Where a name gives a salt, the structure may show the parent alone.

Each compound was assayed on Acinetobacter baumannii ATCC17961 (assay: Antimicrobial susceptibility testing: 90% growth inhibitory concentration (IC90) determination, Iso-Sensitest broth). Conditions: Acinetobacter baumannii, ATCC17961, 90% growth inhibitory concentration, Acinetobacter baumannii ATCC17961, Iso-Sensitest broth; read-out: ATCC 17961 IC90.
Type: cell-based
Outline: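 Twofold serial dilutions (e.g. 10 to 0.02 μM final) were tested in Iso-Sensitest broth against ~5×10^(5) CFU/ml at 35±2 °C. OD600 was read every 20 min over 16 h. IC90 was derived from growth inhibition during the logarithmic phase.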
Compound `COc1ccc(-c2cnc(C(=O)Nc3ccc(C(=O)N4CCC(C(=O)NC[C@H]5CCNC5)CC4)c(Cl)c3)n2C)c(F)c1F` [Example 56, 1-[2-chloro-4-[[5-(2,3-difluoro-4-methoxy-phenyl)-1-methyl-imidazole-2-carbonyl]amino]benzoyl]-N-[[(3S)-pyrrolidin-3-yl]methyl]piperidine-4-carboxamide formate] has an IC90 of 70 nM.
For `COc1ccc(-c2cnc(C(=O)Nc3ccc(C(=O)N4CCC(NC(=O)CCN(C)C)CC4)c(Cl)c3)n2C)c(F)c1F` [Example 101, N-[3-chloro-4-[4-[3-(dimethylamino)propanoylamino]piperidine-1-carbonyl]phenyl]-5-(2,3-difluoro-4-methoxy-phenyl)-1-methyl-imidazole-2-carboxamide formate], the IC90 was 50 nM.
Work on `Cn1c(-c2ccc(OCC#N)c(F)c2F)cnc1C(=O)Nc1ccc(C(=O)N2CCN(CCNC(=O)[C@H]3CCCN3)CC2)c(Cl)c1` [Example 213, (R)-N-(3-chloro-4-(4-(2-(pyrrolidine-2-carboxamido)ethyl)piperazine-1-carbonyl)phenyl)-5-(4-(cyanomethoxy)-2,3-difluorophenyl)-1-methyl-1H-imidazole-2-carboxamide 2,2,2-trifluoroacetate] yielded an IC90 of 100 nM.
Work on `Cn1c(-c2ccc(OC(F)F)c(F)c2F)cnc1C(=O)Nc1ccc(C(=O)N2CCC(C(=O)N3CCC(C(N)=O)C3)CC2)c(Cl)c1` (stereo not drawn) [Example 49, N-[4-[4-(3-carbamoylpyrrolidine-1-carbonyl)piperidine-1-carbonyl]-3-chloro-phenyl]-5-[4-(difluoromethoxy)-2,3-difluoro-phenyl]-1-methyl-imidazole-2-carboxamide trifluoroacetate] yielded an IC90 of 150 nM.
`COc1ccc(-c2cnc(C(=O)Nc3ccc(C(=O)N4CCN(C(=O)CCC#N)CC4)c(Cl)c3)n2C)c(F)c1F` [Example 134, N-[3-chloro-4-[4-(3-cyanopropanoyl)piperazine-1-carbonyl]phenyl]-5-(2,3-difluoro-4-methoxy-phenyl)-1-methyl-imidazole-2-carboxamide] gave an IC90 of 100 nM.
Compound `CN(C)CCN1CCN(C(=O)c2ccc(NC(=O)c3ncc(-c4ccc(Oc5ccncc5)c(F)c4F)n3C)cc2Cl)CC1` [Example 272, N-[3-chloro-4-[4-[2-(dimethylamino)ethyl]piperazine-1-carbonyl]phenyl]-5-[2,3-difluoro-4-(4-pyridyloxy)phenyl]-1-methyl-imidazole-2-carboxamide trifluoroacetate] has an IC90 of 880 nM.
For `COc1ccc(-c2cnc(C(=O)Nc3ccc(C(=O)N4CCN(S(=O)(=O)C5CCNC5)CC4)c(Cl)c3)n2C)c(F)c1F` (stereo not drawn) [Example 241, N-[3-chloro-4-(4-pyrrolidin-3-ylsulfonylpiperazine-1-carbonyl)phenyl]-5-(2,3-difluoro-4-methoxy-phenyl)-1-methyl-imidazole-2-carboxamide], the IC90 was 150 nM.
Compound `CCc1cc(NC(=O)c2ncc(-c3ccc(OC)c(F)c3F)n2C)ccc1C(=O)N1CCC(C(=O)N2CCN(CCCN(C)C)CC2)CC1` [Example 97, 5-(2,3-difluoro-4-methoxy-phenyl)-N-[4-[4-[4-[3-(dimethylamino)propyl]piperazine-1-carbonyl]piperidine-1-carbonyl]-3-ethyl-phenyl]-1-methyl-imidazole-2-carboxamide] has an IC90 of 260 nM.
For `Cc1cc(NC(=O)c2ncc(-c3ccc(OCC#N)c(F)c3F)n2C)ccc1C(=O)N1CCN(C(=O)[C@@H]2C[C@](C)(O)CN2)CC1` [Example 225, 5-[4-(cyanomethoxy)-2,3-difluoro-phenyl]-N-[4-[4-[(2S,4S)-4-hydroxy-4-methyl-pyrrolidine-2-carbonyl]piperazine-1-carbonyl]-3-methyl-phenyl]-1-methyl-imidazole-2-carboxamide formate], the IC90 was 160 nM.
`COc1cc(-c2cnc(C(=O)Nc3ccc(C(=O)N4CCN(C(=O)C5CCNCC5)CC4)c(Cl)c3)n2C)cc(F)c1F` [Example 258, N-[3-chloro-4-[4-(piperidine-4-carbonyl)piperazine-1-carbonyl]phenyl]-5-(3,4-difluoro-5-methoxy-phenyl)-1-methyl-imidazole-2-carboxamide formate] gave an IC90 of 1120 nM.
For `CN(C)CC(=O)N1CCN(C(=O)c2ccc(NC(=O)c3ncc(-c4ccc(OC(F)F)c(F)c4F)n3C)cc2Cl)CC1` [Example 156, N-[3-chloro-4-[4-[2-(dimethylamino)acetyl]piperazine-1-carbonyl]phenyl]-5-[4-(difluoromethoxy)-2,3-difluoro-phenyl]-1-methyl-imidazole-2-carboxamide formate], the IC90 was 30 nM.
`Cn1c(-c2ccc(OC(F)F)c(F)c2F)cnc1C(=O)Nc1ccc(C(=O)N2CCC(C(=O)N[C@@H]3CNC[C@H]3O)CC2)c(Cl)c1` [Example 96, 1-(2-chloro-4-(5-(4-(difluoromethoxy)-2,3-difluorophenyl)-1-methyl-1H-imidazole-2-carboxamido)benzoyl)-N-((3R,4R)-4-hydroxypyrrolidin-3-yl)piperidine-4-carboxamide formate] showed an IC90 of 40 nM.
Compound `Cc1c(-c2cnc(C(=O)Nc3ccc(C(=O)N4CCN(C(=O)C[C@@H]5CCNC5)CC4)c(Cl)c3)n2C)ccc(OCF)c1F` [Example 259, N-[3-chloro-4-[4-[2-[(3S)-pyrrolidin-3-yl]acetyl]piperazine-1-carbonyl]phenyl]-5-[3-fluoro-4-(fluoromethoxy)-2-methyl-phenyl]-1-methyl-imidazole-2-carboxamide formate] has an IC90 of 50 nM.
For `COc1ccc(-c2cnc(C(=O)Nc3ccc(C(=O)N4CCN(C(=O)C[C@@H]5CCNC5)CC4)c(Cl)c3)n2C)c(C#N)c1F` [Example 260, N-[3-chloro-4-[4-[2-[(3S)-pyrrolidin-3-yl]acetyl]piperazine-1-carbonyl]phenyl]-5-(2-cyano-3-fluoro-4-methoxy-phenyl)-1-methyl-imidazole-2-carboxamide formate], the IC90 was 250 nM.
For `COc1ccc(-c2cnc(C(=O)Nc3ccc(C(=O)N4CCC(C(=O)N5CCC(N)CC5)CC4)c(Cl)c3)n2C)c(F)c1F` [Example 39, N-[4-[4-(4-aminopiperidine-1-carbonyl)piperidine-1-carbonyl]-3-chloro-phenyl]-5-(2,3-difluoro-4-methoxy-phenyl)-1-methyl-imidazole-2-carboxamide formate], the IC90 was 70 nM.
With `COc1ccc(-c2cnc(C(=O)Nc3ccc(C(=O)N4CCN(C(=O)C5CCNCC5)CC4)c(Cl)c3)n2C)cc1C#N` [Example 192, N-[3-chloro-4-[4-(piperidine-4-carbonyl)piperazine-1-carbonyl]phenyl]-5-(3-cyano-4-methoxy-phenyl)-1-methyl-imidazole-2-carboxamide formate] the IC90 was 460 nM.
Compound `Cn1c(-c2ccc(OCC#N)c(F)c2Cl)cnc1C(=O)Nc1ccc(C(=O)N2CCN(C(=O)[C@H]3CCNC3)CC2)c(Cl)c1` [Example 253, 5-[2-chloro-4-(cyanomethoxy)-3-fluoro-phenyl]-N-[3-chloro-4-[4-[(3S)-pyrrolidine-3-carbonyl]piperazine-1-carbonyl]phenyl]-1-methyl-imidazole-2-carboxamide formate] has an IC90 of 50 nM.
In the case of `COc1ccc(-c2cnc(C(=O)Nc3ccc(C(=O)N4CCN(C(=O)[C@H]5CCNC[C@@H]5O)CC4)c(Cl)c3)n2C)c(F)c1F` [Example 231, N-[3-chloro-4-[4-[(3R,4S)-3-hydroxypiperidine-4-carbonyl]piperazine-1-carbonyl]phenyl]-5-(2,3-difluoro-4-methoxy-phenyl)-1-methyl-imidazole-2-carboxamide formate], the IC90 is reported as 160 nM.
